{
  "source": "paper PMC4733634",
  "about": "(Journal of the American Chemical Society, 2015)",
  "key": {"[1]": {"system": "S. aureus quality control strain 43300 (ATCC)", "experiment": "microbe, parasite or virus in culture", "format": "cell-based", "conditions": "Staphylococcus aureus, ATCC43300|MRSA, 18 h, read-out: MIC wild-type S.aureus"}, "[2]": {"system": "lab generated F98Y mutant strain", "experiment": "Minimum inhibitory concentration, micro-dilution broth assay, F98Y mutant strain", "format": "cell-based, S. aureus", "conditions": "Staphylococcus aureus, 18 h, read-out: MIC Sa(F98Y)"}},
  "data": [
    {"smiles": "COc1cc(Cc2cnc(N)nc2N)cc(OC)c1OC", "note": "[TMP, trimethoprim]", "values": [
      {"measurement": "MIC", "setting": "[1]", "result": 0.312, "unit": "µg/mL"},
      {"measurement": "MIC", "setting": "[2]", "result": 10, "unit": "µg/mL"}
    ]}
  ]
}
